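Tested at 5 concentrations; 48 h exposure; 96-well plates; endpoints linearly interpolated, else capped at highest concentration. At the GI50, growth is halved. TGI denotes the concentration required for complete inhibition of growth.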
What was measured:
Assay in all cases: DTP human tumour cell line panel, 48 h
HCT-116 colon = tested on: HCT-116 colon
HS 578T breast = tested on: HS 578T breast
K-562 leukemia = tested on: K-562 leukemia
MALME-3M melanoma = tested on: MALME-3M melanoma
MOLT-4 leukemia = tested on: MOLT-4 leukemia
NCI/ADR-RES ovarian = tested on: NCI/ADR-RES ovarian
RPMI-8226 leukemia = tested on: RPMI-8226 leukemia
RXF 393 renal = tested on: RXF 393 renal
SR leukemia = tested on: SR leukemia
SNB-19 CNS = tested on: SNB-19 CNS

SMILES	GI50 (HCT-116 colon)	TGI (HCT-116 colon)	GI50 (HS 578T breast)	TGI (HS 578T breast)	GI50 (K-562 leukemia)	TGI (K-562 leukemia)	GI50 (MALME-3M melanoma)	TGI (MALME-3M melanoma)	GI50 (MOLT-4 leukemia)	TGI (MOLT-4 leukemia)	GI50 (NCI/ADR-RES ovarian)	TGI (NCI/ADR-RES ovarian)	GI50 (RPMI-8226 leukemia)	TGI (RPMI-8226 leukemia)	GI50 (RXF 393 renal)	TGI (RXF 393 renal)	GI50 (SR leukemia)	TGI (SR leukemia)	GI50 (SNB-19 CNS)	TGI (SNB-19 CNS)
O=C1/C(=C/c2ccc(Cl)cc2Cl)N=C(c2ccccc2)N1Cc1ccco1	20.7 µM	47.1 µM	22.7 µM	65 µM	41.1 µM	> 100 µM	21.2 µM	52.8 µM	25.8 µM	> 100 µM	25.5 µM	57.9 µM	23.8 µM	92 µM	22.6 µM	51.8 µM	> 100 µM	> 100 µM	–	–
Cc1nn(CN2CCN(C)CC2)c(=S)n1/N=C/c1cccc2ccccc12	18 µM	35.6 µM	26.8 µM	74.8 µM	15.2 µM	37.5 µM	–	–	19.1 µM	41.5 µM	19.3 µM	36.3 µM	17.4 µM	39.9 µM	18.2 µM	34.1 µM	19 µM	38.5 µM	20.3 µM	51.6 µM
CC[CH2][Pb]([CH2]CC)([CH2]CC)[O]C(=O)C(F)(F)F	0.0798 µM	0.262 µM	0.0947 µM	0.759 µM	0.0918 µM	0.552 µM	0.0894 µM	0.348 µM	0.183 µM	0.627 µM	0.298 µM	1.06 µM	0.0627 µM	0.403 µM	0.0724 µM	0.277 µM	–	–	0.206 µM	0.81 µM
NCC(=O)NS(=O)(=O)OC[C@H]1O[C@@H](n2cnc3c(N)ncnc32)[C@H](O)[C@@H]1O	3.14 µM	9.19 µM	2.89 µM	9.13 µM	3.71 µM	11.8 µM	1.92 µM	3.87 µM	2.62 µM	8.86 µM	2.53 µM	9.67 µM	3.29 µM	10.1 µM	2.11 µM	4.2 µM	0.936 µM	> 100 µM	0.378 µM	1.48 µM
C[C@]12CC[C@H](O)CC1=CC[C@@H]1[C@@H]2CC[C@]2(C)C(c3cccnc3)=CC[C@@H]12	19.2 µM	> 100 µM	7.13 µM	> 100 µM	3.99 µM	> 100 µM	54.3 µM	> 100 µM	> 38.5 µM	> 100 µM	38.4 µM	> 100 µM	5.1 µM	> 100 µM	3.32 µM	19 µM	9.44 µM	> 100 µM	26.8 µM	> 100 µM
N#C/C(=C1C=C/C(=N/O)C(Br)=C/1)c1ccccc1	0.362 µM	2.13 µM	2.52 µM	8.09 µM	0.878 µM	12.6 µM	4.72 µM	22.6 µM	2.93 µM	11.5 µM	2.61 µM	84.1 µM	0.36 µM	11.5 µM	3.01 µM	11.5 µM	0.545 µM	8.48 µM	8.7 µM	> 100 µM
Cn1c(N2NC(=O)C(N=Nc3ccc(S(N)(=O)=O)cc3)C2=O)nc(-c2ccco2)c(C#N)c1=O (stereo not drawn)	15.4 µM	> 50 µM	9.85 µM	38.6 µM	5.69 µM	31.2 µM	0.0614 µM	7.62 µM	9.27 µM	27.8 µM	> 50 µM	> 50 µM	4.98 µM	30.2 µM	9.65 µM	26.1 µM	2.89 µM	28.4 µM	> 50 µM	> 50 µM
CCCCC/C(C=C(C#N)C#N)=C/c1ccccc1	1.95 µM	4.46 µM	1.87 µM	4.76 µM	3.8 µM	35.3 µM	3.11 µM	16.5 µM	2.37 µM	6.98 µM	2.48 µM	6.46 µM	1.92 µM	5.78 µM	5.82 µM	22.3 µM	–	–	6.53 µM	21.8 µM
COc1ccc(C2=NN(C(=O)c3cc(OC)c(OC)c(OC)c3)C(c3ccc(C#N)cc3)C2)cc1OC (stereo not drawn)	1.63 µM	> 44.2 µM	1.53 µM	> 26 µM	0.889 µM	> 100 µM	14.6 µM	> 78.9 µM	4.27 µM	> 100 µM	0.603 µM	11.1 µM	3.54 µM	> 100 µM	0.541 µM	4.69 µM	1.13 µM	> 100 µM	3.02 µM	> 68.2 µM
CC1=C(C(=O)Nc2ccc3[nH]ncc3c2)C(c2ccc3ccccc3c2)CC(=O)N1 (stereo not drawn)	14.1 µM	> 25 µM	0.873 µM	> 25 µM	> 25 µM	> 25 µM	11 µM	> 25 µM	> 25 µM	> 25 µM	> 25 µM	> 25 µM	> 25 µM	> 25 µM	4.11 µM	> 23.8 µM	> 25 µM	> 25 µM	> 25 µM	> 25 µM
CN(C)CCNc1cc(-c2ccccc2)nc2ccccc12	3.75 µM	18.8 µM	12 µM	37.1 µM	2.6 µM	12.3 µM	12.6 µM	27.7 µM	3.27 µM	11.6 µM	9.11 µM	53.3 µM	4.09 µM	21.8 µM	–	–	2.72 µM	8.37 µM	14.6 µM	49.7 µM
Cc1ccc2c(c1)C(=O)/C(=C/c1ncc([N+](=O)[O-])n1C)O2	0.282 µM	0.886 µM	1.94 µM	> 23.2 µM	0.598 µM	> 24.9 µM	1.8 µM	4.37 µM	0.5 µM	7.43 µM	2.24 µM	7.04 µM	1.6 µM	5.63 µM	–	–	0.0379 µM	0.431 µM	2.36 µM	> 25.6 µM

— PubChem BioAssay (NCI)
